{"source": "paper PMC6802847", "about": "“Mutual role of ecto-5'-nucleotidase/CD73 and concentrative nucleoside transporter 3 in the intestinal uptake of dAMP” (PLoS ONE, 2019)", "key": {"[1]": {"molecular_target": "T1, ecto-5'-nucleotidase/CD73 (Homo sapiens, UniProt P21589)", "T1 construct": "gene NT5E", "T1 sequence (P21589 27-549)": "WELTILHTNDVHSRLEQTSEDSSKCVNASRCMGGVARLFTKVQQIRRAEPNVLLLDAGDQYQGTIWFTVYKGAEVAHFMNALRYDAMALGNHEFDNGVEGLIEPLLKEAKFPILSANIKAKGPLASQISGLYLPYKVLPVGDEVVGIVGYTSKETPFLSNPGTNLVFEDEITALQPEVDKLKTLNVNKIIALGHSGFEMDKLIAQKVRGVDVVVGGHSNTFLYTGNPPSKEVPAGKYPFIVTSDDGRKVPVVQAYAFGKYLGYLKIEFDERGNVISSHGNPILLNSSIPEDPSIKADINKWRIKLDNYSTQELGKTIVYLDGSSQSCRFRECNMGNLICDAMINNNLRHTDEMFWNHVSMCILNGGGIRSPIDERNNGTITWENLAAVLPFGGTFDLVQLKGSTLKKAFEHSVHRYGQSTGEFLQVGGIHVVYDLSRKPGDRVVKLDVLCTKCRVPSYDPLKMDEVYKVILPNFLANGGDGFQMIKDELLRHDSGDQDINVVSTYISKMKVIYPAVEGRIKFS", "assay": "phosphate release from […] dAMP in COS-7 cells expressing CD73"}, "[2]": {"molecular_target": "T2, concentrative nucleoside transporter 3 (CNT3) (Homo sapiens, UniProt Q9HAS3)", "T2 construct": "gene SLC28A3", "T2 sequence (Q9HAS3 1-691)": "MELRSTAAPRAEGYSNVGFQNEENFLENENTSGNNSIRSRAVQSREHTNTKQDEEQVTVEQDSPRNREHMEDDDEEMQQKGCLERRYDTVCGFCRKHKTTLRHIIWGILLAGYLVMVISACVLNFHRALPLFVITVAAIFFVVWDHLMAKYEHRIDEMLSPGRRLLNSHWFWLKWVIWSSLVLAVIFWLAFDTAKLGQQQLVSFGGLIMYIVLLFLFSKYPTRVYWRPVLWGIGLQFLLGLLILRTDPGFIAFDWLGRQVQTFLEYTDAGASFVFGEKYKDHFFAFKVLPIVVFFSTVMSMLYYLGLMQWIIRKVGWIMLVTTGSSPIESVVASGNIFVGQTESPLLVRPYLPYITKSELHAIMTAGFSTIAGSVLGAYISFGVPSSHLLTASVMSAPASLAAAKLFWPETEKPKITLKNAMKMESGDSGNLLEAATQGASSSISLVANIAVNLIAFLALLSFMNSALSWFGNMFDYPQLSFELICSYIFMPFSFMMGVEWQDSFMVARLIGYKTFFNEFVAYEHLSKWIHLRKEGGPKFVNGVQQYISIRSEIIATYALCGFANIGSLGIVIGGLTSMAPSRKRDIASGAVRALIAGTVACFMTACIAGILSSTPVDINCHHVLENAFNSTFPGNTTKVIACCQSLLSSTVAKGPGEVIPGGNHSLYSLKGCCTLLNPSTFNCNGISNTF", "assay": "radiolabelled uptake ([…]) in COS-7 cells transiently expressing CNT3 vs empty vector", "type": "cell-based"}, "[3]": {"molecular_target": "T2, concentrative nucleoside transporter 3 (CNT3)", "assay": "radiolabelled uptake ([…]) in COS-7 cells transiently expressing CNT3 vs mock", "type": "cell-based"}, "[4]": {"substrate": "Nc1ncnc2c1ncn2C1CC(O)C(CO)O1", "assay": "cells, lysate or membranes", "conditions": "Na+"}, "[5]": {"substrate": "Nc1ncnc2c1ncn2[C@H]1C[C@H](O)[C@@H](COP(=O)(O)O)O1", "assay": "cells, lysate or membranes", "conditions": "Na+"}}}
{"molecule": "Nc1ncnc2c1ncn2[C@H]1C[C@H](O)[C@@H](COP(=O)(O)O)O1", "note": "[2'-deoxyadenosine 5'-monophosphate]", "values": [{"measurement": "phosphate release from 10 μM dAMP in COS-7 cells expressing CD73", "setting": "[1]", "result": "the phosphate release from dAMP was significantly increased by the introduction of CD73 into COS-7 cells"}]}
{"molecule": "Nc1ncnc2c1ncn2[C@@H]1O[C@H](COP(=O)(O)O)[C@@H](O)[C@H]1O", "note": "[Adenosine 5'-monophosphate]", "values": [{"measurement": "radiolabelled uptake (10 nM) in COS-7 cells transiently expressing CNT3 vs empty", "setting": "[2]", "result": "enhanced cellular uptake of [^3H]AMP with the introduction of CNT3 alone was greater than that of [^3H]dAMP"}]}
{"molecule": "Cc1cn([C@H]2C[C@H](O)[C@@H](CO)O2)c(=O)[nH]c1=O", "note": "[thymidine]", "values": [{"measurement": "radiolabelled uptake (10 nM) in COS-7 cells transiently expressing CNT3 vs mock", "setting": "[3]", "result": "Transfection of CNT3 cDNA into COS-7 cells resulted in an increased uptake of [^3H]thymidine, a typical substrate of CNT3"}]}
{"molecule": "concentrative nucleoside transporter 3 (CNT3) (Homo sapiens) (protein) MELRSTAAPRAEGYSNVGFQNEENFLENENTSGNNSIRSRAVQSREHTNTKQDEEQVTVEQDSPRNREHMEDDDEEMQQKGCLERRYDTVCGFCRKHKTTLRHIIWGILLAGYLVMVISACVLNFHRALPLFVITVAAIFFVVWDHLMAKYEHRIDEMLSPGRRLLNSHWFWLKWVIWSSLVLAVIFWLAFDTAKLGQQQLVSFGGLIMYIVLLFLFSKYPTRVYWRPVLWGIGLQFLLGLLILRTDPGFIAFDWLGRQVQTFLEYTDAGASFVFGEKYKDHFFAFKVLPIVVFFSTVMSMLYYLGLMQWIIRKVGWIMLVTTGSSPIESVVASGNIFVGQTESPLLVRPYLPYITKSELHAIMTAGFSTIAGSVLGAYISFGVPSSHLLTASVMSAPASLAAAKLFWPETEKPKITLKNAMKMESGDSGNLLEAATQGASSSISLVANIAVNLIAFLALLSFMNSALSWFGNMFDYPQLSFELICSYIFMPFSFMMGVEWQDSFMVARLIGYKTFFNEFVAYEHLSKWIHLRKEGGPKFVNGVQQYISIRSEIIATYALCGFANIGSLGIVIGGLTSMAPSRKRDIASGAVRALIAGTVACFMTACIAGILSSTPVDINCHHVLENAFNSTFPGNTTKVIACCQSLLSSTVAKGPGEVIPGGNHSLYSLKGCCTLLNPSTFNCNGISNTF", "values": [{"measurement": "Km", "setting": "[4]", "result": "56.3 ± 7.0", "unit": "µM"}, {"measurement": "Km", "setting": "[5]", "result": "59.6 ± 3.8", "unit": "µM"}]}
